Measured values as given in US20110028686A1, “Protein binding miniature proteins” (Yale University, priority 2000, published 2011).
Where two headings read alike, the source gives them in different places. Square brackets hold non-standard residues; d marks the D form. Peptide text beside a SMILES is read from it. * marks the point of attachment. Fluorescein(5-NHCOCH2) = O=C(C*)Nc1ccc2c(c1)C(=O)OC21c2ccc(O)cc2Oc2cc(O)ccc21; pS = N[C@@H](COP(=O)(O)O)C(=O)O

Legend:
[1] = molecular target: T1, CBP KIX wild type (Mus musculus, UniProt P45481); assay: Equilibrium fluorescence polarization, wild type CBP KIX; assay type: binding; conditions: 25° C.
T1 construct: made in house; host or cells: E. coli BL21(DE3) pArg
T1 sequence (P45481 586-665 limits assumed): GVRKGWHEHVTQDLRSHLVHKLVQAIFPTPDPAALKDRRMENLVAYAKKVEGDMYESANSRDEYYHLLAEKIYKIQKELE

[2] = molecular target: T2, HisKIX (His-tagged CBP KIX domain) (Mus musculus, UniProt P45481); assay: Equilibrium fluorescence polarization, HisKIX binding; conditions: for Kd: 25° C.
T2 construct: The CBP KIX-coding region (residues 586 to 672) of pGEX-KT KIX 10-672; made in house; host or cells: E. coli BL21(DE3) pArg
T2 sequence (P45481 586-672): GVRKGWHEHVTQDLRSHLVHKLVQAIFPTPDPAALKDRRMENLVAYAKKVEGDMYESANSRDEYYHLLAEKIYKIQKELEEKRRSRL

[3] = fluorescein-labeled unphosphorylated peptide, read-out: Kd HisKIX, unphosphorylated peptide (U)
[4] = label shows phosphorylated (P) or unphosphorylated (U) form, read-out: Kd HisKIX

In the case of `CC[C@H](C)[C@H](NC(=O)[C@H](Cc1ccc(O)cc1)NC(=O)[C@H](C)NC(=O)[C@H](Cc1ccccc1)NC(=O)[C@H](COP(=O)(O)O)NC(=O)[C@H](CC(C)C)NC(=O)[C@H](CCCNC(=N)N)NC(=O)[C@H](CCCNC(=N)N)NC(=O)[C@@H](NC(=O)[C@@H]1CCCN1C(=O)[C@H](C)NC(=O)[C@H](CC(=O)O)NC(=O)[C@H](CC(=O)O)NC(=O)CNC(=O)[C@@H]1CCCN1C(=O)[C@H](Cc1ccc(O)cc1)NC(=O)[C@@H](NC(=O)[C@@H]1CCCN1C(=O)[C@H](CCC(N)=O)NC(=O)[C@H](CO)NC(=O)[C@@H]1CCCN1C(=O)CN)[C@@H](C)O)C(C)C)C(=O)N[C@@H](CC(C)C)C(=O)N[C@@H](CC(C)C)C(=O)N[C@@H](CC(=O)O)C(=O)N[C@@H](CC(C)C)C(=O)N[C@@H](Cc1ccc(O)cc1)C(=O)N[C@@H](CC(C)C)C(=O)N[C@@H](CC(=O)O)C(=O)N[C@@H](C)C(=O)N1CCC[C@H]1C(=O)NCC(=O)N[C@H](C(=O)N[C@@H](CSCC(=O)Nc1ccc2c(c1)C(=O)OC21c2ccc(O)cc2Oc2cc(O)ccc21)C(N)=O)C(C)C` [F20A] (H-GPSQPTYPGDDAPVRRL[pS]FAYILLDLYLDAPGVC(Fluorescein(5-NHCOCH2))-NH2), the Kd [1] is reported as 2550 ± 250 nM.

In the case of `CC[C@H](C)[C@H](NC(=O)[C@H](Cc1ccc(O)cc1)NC(=O)[C@H](Cc1ccccc1)NC(=O)[C@H](Cc1ccccc1)NC(=O)[C@H](COP(=O)(O)O)NC(=O)[C@H](C)NC(=O)[C@H](CCCNC(=N)N)NC(=O)[C@H](CCCNC(=N)N)NC(=O)[C@@H](NC(=O)[C@@H]1CCCN1C(=O)[C@H](C)NC(=O)[C@H](CC(=O)O)NC(=O)[C@H](CC(=O)O)NC(=O)CNC(=O)[C@@H]1CCCN1C(=O)[C@H](Cc1ccc(O)cc1)NC(=O)[C@@H](NC(=O)[C@@H]1CCCN1C(=O)[C@H](CCC(N)=O)NC(=O)[C@H](CO)NC(=O)[C@@H]1CCCN1C(=O)CN)[C@@H](C)O)C(C)C)C(=O)N[C@@H](CC(C)C)C(=O)N[C@@H](CC(C)C)C(=O)N[C@@H](CC(=O)O)C(=O)N[C@@H](CC(C)C)C(=O)N[C@@H](Cc1ccc(O)cc1)C(=O)N[C@@H](CC(C)C)C(=O)N[C@@H](CC(=O)O)C(=O)N[C@@H](C)C(=O)N1CCC[C@H]1C(=O)NCC(=O)N[C@H](C(=O)N[C@@H](CSCC(=O)Nc1ccc2c(c1)C(=O)OC21c2ccc(O)cc2Oc2cc(O)ccc21)C(N)=O)C(C)C` [L17A] (H-GPSQPTYPGDDAPVRRA[pS]FFYILLDLYLDAPGVC(Fluorescein(5-NHCOCH2))-NH2), the Kd [1] is reported as 680 ± 50 nM.

In the case of `CC[C@H](C)[C@H](NC(=O)[C@H](Cc1ccc(O)cc1)NC(=O)[C@H](Cc1ccccc1)NC(=O)[C@H](Cc1ccccc1)NC(=O)[C@H](COP(=O)(O)O)NC(=O)[C@H](CC(C)C)NC(=O)[C@H](CCCNC(=N)N)NC(=O)[C@H](CCCNC(=N)N)NC(=O)[C@@H](NC(=O)[C@@H]1CCCN1C(=O)[C@H](C)NC(=O)[C@H](CC(=O)O)NC(=O)[C@H](CC(=O)O)NC(=O)CNC(=O)[C@@H]1CCCN1C(=O)[C@H](Cc1ccc(O)cc1)NC(=O)[C@@H](NC(=O)[C@@H]1CCCN1C(=O)[C@H](CCC(N)=O)NC(=O)[C@H](CO)NC(=O)[C@@H]1CCCN1C(=O)CN)[C@@H](C)O)C(C)C)C(=O)N[C@@H](CC(C)C)C(=O)N[C@@H](C)C(=O)N[C@@H](CC(=O)O)C(=O)N[C@@H](CC(C)C)C(=O)N[C@@H](Cc1ccc(O)cc1)C(=O)N[C@@H](CC(C)C)C(=O)N[C@@H](CC(=O)O)C(=O)N[C@@H](C)C(=O)N1CCC[C@H]1C(=O)NCC(=O)N[C@H](C(=O)N[C@@H](CSCC(=O)Nc1ccc2c(c1)C(=O)OC21c2ccc(O)cc2Oc2cc(O)ccc21)C(N)=O)C(C)C` [L24A] (H-GPSQPTYPGDDAPVRRL[pS]FFYILADLYLDAPGVC(Fluorescein(5-NHCOCH2))-NH2), the Kd [1] is reported as 1160 ± 70 nM.

`CC[C@H](C)[C@H](NC(=O)[C@H](Cc1ccc(O)cc1)NC(=O)[C@H](Cc1ccccc1)NC(=O)[C@H](Cc1ccccc1)NC(=O)[C@H](COP(=O)(O)O)NC(=O)[C@H](CC(C)C)NC(=O)[C@H](CCCNC(=N)N)NC(=O)[C@H](CCCNC(=N)N)NC(=O)[C@@H](NC(=O)[C@@H]1CCCN1C(=O)[C@H](C)NC(=O)[C@H](CC(=O)O)NC(=O)[C@H](CC(=O)O)NC(=O)CNC(=O)[C@@H]1CCCN1C(=O)[C@H](Cc1ccc(O)cc1)NC(=O)[C@@H](NC(=O)[C@@H]1CCCN1C(=O)[C@H](CCC(N)=O)NC(=O)[C@H](CO)NC(=O)[C@@H]1CCCN1C(=O)CN)[C@@H](C)O)C(C)C)C(=O)N[C@@H](CC(C)C)C(=O)N[C@@H](CC(C)C)C(=O)N[C@@H](CC(=O)O)C(=O)N[C@@H](CC(C)C)C(=O)N[C@@H](Cc1ccc(O)cc1)C(=O)N[C@@H](C)C(=O)N[C@@H](CC(=O)O)C(=O)N[C@@H](C)C(=O)N1CCC[C@H]1C(=O)NCC(=O)N[C@H](C(=O)N[C@@H](CSCC(=O)Nc1ccc2c(c1)C(=O)OC21c2ccc(O)cc2Oc2cc(O)ccc21)C(N)=O)C(C)C` [L28A] (H-GPSQPTYPGDDAPVRRL[pS]FFYILLDLYADAPGVC(Fluorescein(5-NHCOCH2))-NH2) showed a Kd [1] of 830 ± 110 nM.

`CC[C@H](C)[C@H](NC(=O)[C@H](Cc1ccc(O)cc1)NC(=O)[C@H](Cc1ccccc1)NC(=O)[C@H](Cc1ccccc1)NC(=O)[C@H](COP(=O)(O)O)NC(=O)[C@H](CC(C)C)NC(=O)[C@H](CCCNC(=N)N)NC(=O)[C@H](CCCNC(=N)N)NC(=O)[C@@H](NC(=O)[C@@H]1CCCN1C(=O)[C@H](C)NC(=O)[C@H](CC(=O)O)NC(=O)[C@H](CC(=O)O)NC(=O)CNC(=O)[C@@H]1CCCN1C(=O)[C@H](Cc1ccc(O)cc1)NC(=O)[C@@H](NC(=O)[C@@H]1CCCN1C(=O)[C@H](CCC(N)=O)NC(=O)[C@H](CO)NC(=O)[C@H](C)NC(=O)CN)[C@@H](C)O)C(C)C)C(=O)N[C@@H](CC(C)C)C(=O)N[C@@H](CC(C)C)C(=O)N[C@@H](CC(=O)O)C(=O)N[C@@H](CC(C)C)C(=O)N[C@@H](Cc1ccc(O)cc1)C(=O)N[C@@H](CC(C)C)C(=O)N[C@@H](CC(=O)O)C(=O)N[C@@H](C)C(=O)N1CCC[C@H]1C(=O)NCC(=O)N[C@H](C(=O)N[C@@H](CSCC(=O)Nc1ccc2c(c1)C(=O)OC21c2ccc(O)cc2Oc2cc(O)ccc21)C(N)=O)C(C)C` [P2A] (H-GASQPTYPGDDAPVRRL[pS]FFYILLDLYLDAPGVC(Fluorescein(5-NHCOCH2))-NH2) gave a Kd [1] of 870 ± 40 nM.

In the case of `CC[C@H](C)[C@H](NC(=O)[C@H](Cc1ccc(O)cc1)NC(=O)[C@H](Cc1ccccc1)NC(=O)[C@H](Cc1ccccc1)NC(=O)[C@H](CO)NC(=O)[C@H](CC(C)C)NC(=O)[C@H](CCCNC(=N)N)NC(=O)[C@H](CCCNC(=N)N)NC(=O)[C@@H](NC(=O)[C@@H]1CCCN1C(=O)[C@H](C)NC(=O)[C@H](CC(=O)O)NC(=O)[C@H](CC(=O)O)NC(=O)CNC(=O)[C@H](Cc1c[nH]c2ccccc12)NC(=O)[C@H](CCC(=O)O)NC(=O)[C@@H](NC(=O)[C@H](Cc1ccc(O)cc1)NC(=O)[C@@H]1CCCN1C(=O)[C@H](CO)NC(=O)[C@H](CC(C)C)NC(=O)CN)[C@@H](C)O)C(C)C)C(=O)N[C@@H](CC(C)C)C(=O)N[C@@H](CC(C)C)C(=O)N[C@@H](CC(=O)O)C(=O)N[C@@H](CC(C)C)C(=O)N[C@@H](Cc1ccc(O)cc1)C(=O)N[C@@H](CC(C)C)C(=O)N[C@@H](CC(=O)O)C(=O)N[C@@H](C)C(=O)N1CCC[C@H]1C(=O)NCC(=O)N[C@H](C(=O)N[C@@H](CSCC(=O)Nc1ccc2c(c1)C(=O)OC21c2ccc(O)cc2Oc2cc(O)ccc21)C(N)=O)C(C)C` [PPKID7] (H-GLSPYTEWGDDAPVRRLSFFYILLDLYLDAPGVC(Fluorescein(5-NHCOCH2))-NH2), the Kd [2, 3] is reported as 2300 ± 200 nM and the Kd [2, 4] is reported as 1500 to 3100 nM.

`CC[C@H](C)[C@H](NC(=O)[C@H](Cc1ccc(O)cc1)NC(=O)[C@H](Cc1ccccc1)NC(=O)[C@H](Cc1ccccc1)NC(=O)[C@H](CO)NC(=O)[C@H](CC(C)C)NC(=O)[C@H](CCCNC(=N)N)NC(=O)[C@H](CCCNC(=N)N)NC(=O)[C@@H](NC(=O)[C@@H]1CCCN1C(=O)[C@H](C)NC(=O)[C@H](CC(=O)O)NC(=O)[C@H](CC(=O)O)NC(=O)CNC(=O)[C@@H]1CCCN1C(=O)[C@H](CC(=O)O)NC(=O)[C@@H](NC(=O)[C@H](CCCCN)NC(=O)[C@H](Cc1c[nH]c2ccccc12)NC(=O)[C@H](CO)NC(=O)[C@H](CC(C)C)NC(=O)CN)[C@@H](C)O)C(C)C)C(=O)N[C@@H](CC(C)C)C(=O)N[C@@H](CC(C)C)C(=O)N[C@@H](CC(=O)O)C(=O)N[C@@H](CC(C)C)C(=O)N[C@@H](Cc1ccc(O)cc1)C(=O)N[C@@H](CC(C)C)C(=O)N[C@@H](CC(=O)O)C(=O)N[C@@H](C)C(=O)N1CCC[C@H]1C(=O)NCC(=O)N[C@H](C(=O)N[C@@H](CSCC(=O)Nc1ccc2c(c1)C(=O)OC21c2ccc(O)cc2Oc2cc(O)ccc21)C(N)=O)C(C)C` [PPKID8] (H-GLSWKTDPGDDAPVRRLSFFYILLDLYLDAPGVC(Fluorescein(5-NHCOCH2))-NH2) was tested, and the Kd [2, 3] was 3100 ± 500 nM and the Kd [2, 4] was 1500 to 3100 nM.

For `CC[C@H](C)[C@H](NC(=O)[C@H](Cc1ccc(O)cc1)NC(=O)[C@H](Cc1ccccc1)NC(=O)[C@H](Cc1ccccc1)NC(=O)[C@H](COP(=O)(O)O)NC(=O)[C@H](CC(C)C)NC(=O)[C@H](CCCNC(=N)N)NC(=O)[C@@H](N)CCCNC(=N)N)C(=O)N[C@@H](CC(C)C)C(=O)N[C@@H](CC(C)C)C(=O)N[C@@H](CC(=O)O)C(=O)N[C@@H](CC(C)C)C(=O)N[C@@H](Cc1ccc(O)cc1)C(=O)N[C@@H](CC(C)C)C(=O)N[C@@H](CC(=O)O)C(=O)N[C@@H](C)C(=O)N1CCC[C@H]1C(=O)NCC(=O)N[C@H](C(=O)N[C@@H](CSCC(=O)Nc1ccc2c(c1)C(=O)OC21c2ccc(O)cc2Oc2cc(O)ccc21)C(N)=O)C(C)C` [Peptide C, reference compound] (H-RRL[pS]FFYILLDLYLDAPGVC(Fluorescein(5-NHCOCH2))-NH2), the “fold higher HisKIX affinity than KID-B^P” value [2] was “greater than 20 fold”, the “ΔΔG of CBP KIX binding compared to KID-B of the same phosphorylation state” value ([2]; listed as peptide C^P) was -1.8 kcal/mol and the “ΔΔG of CBP KIX binding compared to KID-B of the same phosphorylation state” value ([2]; listed as peptide C^U) was greater than -1.5 kcal/mol.
